# Where two headings read alike, the source gives them in different places.
# Experiment: 28-day repeat-dose toxicity study, toxicokinetics of AMXT 1501 dicaprate
# Assay type: in vivo, beagle dogs
# Conditions: both sexes, beagle, dog, plasma, po
# Procedure: AMXT 1501 PK parameters were calculated for all AMXT 1501 dicaprate-dosed animals for the first dose (Day 1) and last dose (Day 28).
smiles,measurement,setting,value
CCCCCCCCCCCCCCCC(=O)NCCCC[C@@H](N)C(=O)NCCCNCCCCNCCCN [AMXT 1501 dicaprate],AUC(0-t),"16 mg/kg/day, 16 mg/kg/day PO, DFMO 0, Day 28, M+F combined, read-out: AUC0-t Median",8120 ng·h/mL
same,AUC(0-inf),"16 mg/kg/day, 16 mg/kg/day PO, DFMO 0, Day 28, M+F combined, read-out: AUC0-∞ Mean",8070 ng·h/mL
same,AUC(0-inf),"16 mg/kg/day, 16 mg/kg/day PO, DFMO 0, Day 28, M+F combined, read-out: AUC0-∞ Median",8280 ng·h/mL
same,Cmax,"16 mg/kg/day, 16 mg/kg/day PO, DFMO 0, Day 28, M+F combined, read-out: Cmax Mean",286 ng/mL
same,Cmax,"16 mg/kg/day, 16 mg/kg/day PO, DFMO 0, Day 28, M+F combined, read-out: Cmax Median",309 ng/mL
same,Tmax,"16 mg/kg/day, 16 mg/kg/day PO, DFMO 0, Day 28, M+F combined, read-out: Tmax Mean",5.6 h
same,Tmax,"16 mg/kg/day, 16 mg/kg/day PO, DFMO 0, Day 28, M+F combined, read-out: Tmax Median",6 h
same,half-life,"16 mg/kg/day, 16 mg/kg/day PO, DFMO 0, Day 28, M+F combined, read-out: t1/2 Mean (converted)",25.4 h
same,half-life,"16 mg/kg/day, 16 mg/kg/day PO, DFMO 0, Day 28, M+F combined, read-out: t1/2 Median (converted)",27.8 h
same,AUC(0-t),"16 mg/kg/day, 16 mg/kg/day PO, DFMO 50 mg/kg/day, Day 28, M+F combined, read-out: AUC0-24 hr Mean",4390 ng·h/mL
same,AUC(0-t),"16 mg/kg/day, 16 mg/kg/day PO, DFMO 50 mg/kg/day, Day 28, M+F combined, read-out: AUC0-24 hr Median",3340 ng·h/mL
same,AUC(0-t),"16 mg/kg/day, 16 mg/kg/day PO, DFMO 50 mg/kg/day, Day 28, M+F combined, read-out: AUC0-t Mean",9440 ng·h/mL
same,AUC(0-t),"16 mg/kg/day, 16 mg/kg/day PO, DFMO 50 mg/kg/day, Day 28, M+F combined, read-out: AUC0-t Median",6010 ng·h/mL
same,AUC(0-inf),"16 mg/kg/day, 16 mg/kg/day PO, DFMO 50 mg/kg/day, Day 28, M+F combined, read-out: AUC0-∞ Mean",9590 ng·h/mL
same,AUC(0-inf),"16 mg/kg/day, 16 mg/kg/day PO, DFMO 50 mg/kg/day, Day 28, M+F combined, read-out: AUC0-∞ Median",6080 ng·h/mL
same,Cmax,"16 mg/kg/day, 16 mg/kg/day PO, DFMO 50 mg/kg/day, Day 28, M+F combined, read-out: Cmax Mean",262 ng/mL
same,Cmax,"16 mg/kg/day, 16 mg/kg/day PO, DFMO 50 mg/kg/day, Day 28, M+F combined, read-out: Cmax Median",213 ng/mL
same,Tmax,"16 mg/kg/day, 16 mg/kg/day PO, DFMO 50 mg/kg/day, Day 28, M+F combined, read-out: Tmax Mean",6.3 h
same,Tmax,"16 mg/kg/day, 16 mg/kg/day PO, DFMO 50 mg/kg/day, Day 28, M+F combined, read-out: Tmax Median",6 h
same,half-life,"16 mg/kg/day, 16 mg/kg/day PO, DFMO 50 mg/kg/day, Day 28, M+F combined, read-out: t1/2 Mean (converted)",52.8 h
same,half-life,"16 mg/kg/day, 16 mg/kg/day PO, DFMO 50 mg/kg/day, Day 28, M+F combined, read-out: t1/2 Median (converted)",57.8 h
same,AUC(0-t),"16 mg/kg/day, 16 mg/kg/day PO, DFMO 200 mg/kg/day, Day 1, M+F combined, read-out: AUC0-24 hr Mean",2310 ng·h/mL
same,AUC(0-t),"16 mg/kg/day, 16 mg/kg/day PO, DFMO 200 mg/kg/day, Day 1, M+F combined, read-out: AUC0-24 hr Median",2470 ng·h/mL
same,Cmax,"16 mg/kg/day, 16 mg/kg/day PO, DFMO 200 mg/kg/day, Day 1, M+F combined, read-out: Cmax Mean",152 ng/mL
same,Cmax,"16 mg/kg/day, 16 mg/kg/day PO, DFMO 200 mg/kg/day, Day 1, M+F combined, read-out: Cmax Median",171 ng/mL
same,Tmax,"16 mg/kg/day, 16 mg/kg/day PO, DFMO 200 mg/kg/day, Day 1, M+F combined, read-out: Tmax Mean",8.4 h
same,Tmax,"16 mg/kg/day, 16 mg/kg/day PO, DFMO 200 mg/kg/day, Day 1, M+F combined, read-out: Tmax Median",6 h
same,AUC(0-t),"32 mg/kg/day, 32 mg/kg/day PO, DFMO 0, Day 1, M+F combined, read-out: AUC0-24 hr Mean",3590 ng·h/mL
same,AUC(0-t),"32 mg/kg/day, 32 mg/kg/day PO, DFMO 0, Day 1, M+F combined, read-out: AUC0-24 hr Median",3640 ng·h/mL
same,Cmax,"32 mg/kg/day, 32 mg/kg/day PO, DFMO 0, Day 1, M+F combined, read-out: Cmax Mean",214 ng/mL
same,Cmax,"32 mg/kg/day, 32 mg/kg/day PO, DFMO 0, Day 1, M+F combined, read-out: Cmax Median",224 ng/mL
same,Tmax,"32 mg/kg/day, 32 mg/kg/day PO, DFMO 0, Day 1, M+F combined, read-out: Tmax Mean",8.6 h
same,Tmax,"32 mg/kg/day, 32 mg/kg/day PO, DFMO 0, Day 1, M+F combined, read-out: Tmax Median",9 h
same,AUC(0-t),"32 mg/kg/day, 32 mg/kg/day PO, DFMO 0, Day 28, M+F combined, read-out: AUC0-24 hr Mean",9410 ng·h/mL
same,AUC(0-t),"32 mg/kg/day, 32 mg/kg/day PO, DFMO 0, Day 28, M+F combined, read-out: AUC0-24 hr Median",8760 ng·h/mL
same,AUC(0-t),"32 mg/kg/day, 32 mg/kg/day PO, DFMO 0, Day 28, M+F combined, read-out: AUC0-t Mean",24700 ng·h/mL
same,AUC(0-t),"32 mg/kg/day, 32 mg/kg/day PO, DFMO 0, Day 28, M+F combined, read-out: AUC0-t Median",24300 ng·h/mL
same,AUC(0-inf),"32 mg/kg/day, 32 mg/kg/day PO, DFMO 0, Day 28, M+F combined, read-out: AUC0-∞ Mean",24800 ng·h/mL
same,AUC(0-inf),"32 mg/kg/day, 32 mg/kg/day PO, DFMO 0, Day 28, M+F combined, read-out: AUC0-∞ Median",24400 ng·h/mL
same,Cmax,"32 mg/kg/day, 32 mg/kg/day PO, DFMO 0, Day 28, M+F combined, read-out: Cmax Mean",620 ng/mL
same,Cmax,"32 mg/kg/day, 32 mg/kg/day PO, DFMO 0, Day 28, M+F combined, read-out: Cmax Median",620 ng/mL
same,Tmax,"32 mg/kg/day, 32 mg/kg/day PO, DFMO 0, Day 28, M+F combined, read-out: Tmax Mean",4.3 h
same,Tmax,"32 mg/kg/day, 32 mg/kg/day PO, DFMO 0, Day 28, M+F combined, read-out: Tmax Median",4 h
same,half-life,"32 mg/kg/day, 32 mg/kg/day PO, DFMO 0, Day 28, M+F combined, read-out: t1/2 Mean (converted)",48.7 h
same,half-life,"32 mg/kg/day, 32 mg/kg/day PO, DFMO 0, Day 28, M+F combined, read-out: t1/2 Median (converted)",53.2 h
